Assays:
[1] = biological target: T1, Eukaryotic translation initiation factor 2-alpha kinase 3 (Homo sapiens, UniProt Q9NZJ5); test: Biochemical Assay for PERK
T1 sequence (Q9NZJ5 whole entry): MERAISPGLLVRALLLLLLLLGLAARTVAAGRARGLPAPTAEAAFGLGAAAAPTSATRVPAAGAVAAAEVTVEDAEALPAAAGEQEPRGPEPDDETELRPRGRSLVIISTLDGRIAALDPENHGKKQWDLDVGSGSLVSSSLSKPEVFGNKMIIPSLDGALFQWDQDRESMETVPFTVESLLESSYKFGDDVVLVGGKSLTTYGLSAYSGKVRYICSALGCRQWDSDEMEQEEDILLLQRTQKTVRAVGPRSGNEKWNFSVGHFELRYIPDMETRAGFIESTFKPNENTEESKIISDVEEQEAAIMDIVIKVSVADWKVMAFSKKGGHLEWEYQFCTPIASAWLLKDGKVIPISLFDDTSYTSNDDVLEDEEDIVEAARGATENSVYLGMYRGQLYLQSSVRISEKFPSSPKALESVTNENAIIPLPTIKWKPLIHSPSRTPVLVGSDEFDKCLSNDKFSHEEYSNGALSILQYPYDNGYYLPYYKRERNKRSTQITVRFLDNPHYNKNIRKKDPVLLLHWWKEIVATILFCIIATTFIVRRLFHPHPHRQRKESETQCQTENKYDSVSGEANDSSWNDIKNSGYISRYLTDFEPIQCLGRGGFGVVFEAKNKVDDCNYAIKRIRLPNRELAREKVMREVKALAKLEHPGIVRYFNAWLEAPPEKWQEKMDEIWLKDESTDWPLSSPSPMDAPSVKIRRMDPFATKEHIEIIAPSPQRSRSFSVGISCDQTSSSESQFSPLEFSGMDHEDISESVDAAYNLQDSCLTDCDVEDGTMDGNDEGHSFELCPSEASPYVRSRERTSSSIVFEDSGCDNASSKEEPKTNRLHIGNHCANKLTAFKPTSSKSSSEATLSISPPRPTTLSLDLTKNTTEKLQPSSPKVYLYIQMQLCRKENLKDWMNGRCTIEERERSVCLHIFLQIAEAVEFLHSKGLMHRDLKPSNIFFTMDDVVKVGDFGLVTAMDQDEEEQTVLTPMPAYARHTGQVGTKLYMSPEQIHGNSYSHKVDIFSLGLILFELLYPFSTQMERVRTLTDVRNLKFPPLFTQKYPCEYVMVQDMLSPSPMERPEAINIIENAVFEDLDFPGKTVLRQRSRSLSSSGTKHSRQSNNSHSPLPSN
Experimental: Activity of PERK kinase was determined spectroscopically using a coupled pyruvate kinase/lactate dehydrogenase assay that continuously monitors the ATP hydrolysis-dependent oxidation of NADH (e.g., Schindler et al. Science (2000) 289: 1938-1942). Assays were conducted in 384-well plates ([…] final volume) using 10 nM PERK (from Beryllium), 0.25 mg/mL Myelin Basic Protein substrate, 1.5 units pyruvate kinase, 2.1 units lactate dehydrogenase, 1 mM phosphoenol pyruvate, 0.28 mM NADH and 1 mM ATP in assay buffer (100 mM Tris, pH 7.5, 15 mM MgCl2, 0.5 mM DTT, 0.004% (w/v) BSA, and 0.004% Triton X-100). Inhibition of PERK was measured by adding serial diluted test compound (final assay concentration of 1% DMSO). A decrease in absorption at 340 nm was monitored continuously for 6 hours at 30° C. on a multi-mode microplate reader (BioTek). The reaction rate was calculated using the 2-3 h time frame. The reaction rate at each concentration of compound was converted to percent inhibition using controls (i.e., reaction with no test compound and reaction with a known inhibitor) and IC50 values were calculated using software routines in Prism (GraphPad software).

eIF-2-alpha kinase GCN2 = eIF-2-alpha kinase GCN2 (Homo sapiens, UniProt Q9P2K8); test: Biochemical Assay for GCN2
Sequence of eIF-2-alpha kinase GCN2 (Q9P2K8 whole entry): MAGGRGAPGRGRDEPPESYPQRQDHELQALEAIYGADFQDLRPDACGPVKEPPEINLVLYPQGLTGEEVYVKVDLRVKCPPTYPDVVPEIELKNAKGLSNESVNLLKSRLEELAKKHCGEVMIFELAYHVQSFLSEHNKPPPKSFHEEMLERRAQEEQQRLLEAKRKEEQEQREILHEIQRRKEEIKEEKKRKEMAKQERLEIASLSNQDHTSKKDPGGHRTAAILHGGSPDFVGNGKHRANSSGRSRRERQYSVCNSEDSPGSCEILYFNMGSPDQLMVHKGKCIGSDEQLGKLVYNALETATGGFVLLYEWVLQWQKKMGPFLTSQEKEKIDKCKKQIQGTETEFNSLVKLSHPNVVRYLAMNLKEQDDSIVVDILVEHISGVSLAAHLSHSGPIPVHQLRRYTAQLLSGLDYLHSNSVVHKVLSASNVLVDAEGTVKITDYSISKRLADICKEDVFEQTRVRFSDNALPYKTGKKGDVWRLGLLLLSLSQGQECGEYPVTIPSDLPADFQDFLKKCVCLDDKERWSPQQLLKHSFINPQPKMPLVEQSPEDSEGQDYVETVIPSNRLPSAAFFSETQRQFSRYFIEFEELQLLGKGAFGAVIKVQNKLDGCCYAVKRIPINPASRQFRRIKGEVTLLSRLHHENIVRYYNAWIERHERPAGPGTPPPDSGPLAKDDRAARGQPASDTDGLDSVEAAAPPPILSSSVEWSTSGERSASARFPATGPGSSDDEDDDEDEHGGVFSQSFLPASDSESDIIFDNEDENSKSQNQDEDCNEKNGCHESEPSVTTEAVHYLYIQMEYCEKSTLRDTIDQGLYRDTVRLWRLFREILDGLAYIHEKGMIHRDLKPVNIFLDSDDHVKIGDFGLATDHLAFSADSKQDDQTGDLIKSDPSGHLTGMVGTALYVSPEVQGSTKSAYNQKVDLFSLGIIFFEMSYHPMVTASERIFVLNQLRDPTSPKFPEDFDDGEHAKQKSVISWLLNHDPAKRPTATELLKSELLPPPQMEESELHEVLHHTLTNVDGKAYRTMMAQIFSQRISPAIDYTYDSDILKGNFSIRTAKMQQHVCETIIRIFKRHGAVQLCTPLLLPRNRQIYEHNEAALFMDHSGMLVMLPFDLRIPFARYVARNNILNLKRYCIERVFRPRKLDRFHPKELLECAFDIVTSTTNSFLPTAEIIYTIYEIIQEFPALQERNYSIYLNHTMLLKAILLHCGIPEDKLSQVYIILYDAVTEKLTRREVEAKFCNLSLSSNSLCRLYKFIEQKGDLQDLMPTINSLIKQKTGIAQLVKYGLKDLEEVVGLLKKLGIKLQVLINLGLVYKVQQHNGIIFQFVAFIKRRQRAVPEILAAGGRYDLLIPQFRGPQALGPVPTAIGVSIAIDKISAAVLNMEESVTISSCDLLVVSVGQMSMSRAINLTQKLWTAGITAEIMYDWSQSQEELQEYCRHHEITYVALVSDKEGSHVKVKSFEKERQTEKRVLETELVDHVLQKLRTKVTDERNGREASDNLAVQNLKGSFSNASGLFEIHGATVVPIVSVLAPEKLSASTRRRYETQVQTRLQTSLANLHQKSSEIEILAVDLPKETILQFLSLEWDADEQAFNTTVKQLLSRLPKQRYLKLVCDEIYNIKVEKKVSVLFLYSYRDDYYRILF
Experimental: Activity of GCN2 kinase was determined using a TR-FRET kinase activity assay (e.g. Riddle et al. Analytical Biochemistry (2006) 356(1) 108-116). Assays were conducted in 384-well plates (13 μL assay volume) using 2 nM GCN2 (Carna Biosciences), 130 nM GFP-EIf2α (Invitrogen), 0.2 mg/mL E. coli tRNA (sigma) and 1 mM ATP in kinase buffer (Invitrogen). Inhibition of GCN2 was measured by adding serial diluted test compound (final assay concentration of 0.5% DMSO) followed by a 3-hour incubation. Tb-peIF2α (pSer52) antibody (Invitrogen) (2 nM final assay concentration) in kinase buffer containing EDTA (final assay concentration of 20 mM) was added. After a 60 min incubation at room temperature, TR-FRET was monitored using an excitation wavelength of 340 nm and emission wavelengths of 490 nm and 520 nm. The emission ratio (520/490) at each compound concentration of was converted to percent inhibition using controls (i.e., reaction with no test compound and reaction with a known inhibitor) and IC50 values were calculated by fitting a four-parameter sigmoidal curve to the data using Prism (GraphPad software).

`Nc1nccc2scc(-c3cccc(NS(=O)(=O)c4cc(Cl)cc(CO)c4Cl)c3F)c12` [US20230382915, Example 11] was tested, and the IC50 [1] was less than 100 nM.
In the case of `Nc1nccc2occ(-c3cccc(NS(=O)(=O)c4cc(Cl)cc(CO)c4Cl)c3F)c12` [US20230382915, Example 12], the IC50 [1] is reported as less than 100 nM.
In the case of `CN1CCC(n2cc(-c3cccc(NS(=O)(=O)c4cc(Cl)cc(CO)c4Cl)c3F)c3c(N)ncnc32)CC1` [US20230382915, Example 17], the IC50 (eIF-2-alpha kinase GCN2) is reported as less than 100 nM and the IC50 [1] is reported as less than 100 nM.

From BindingDB's records for patent US20230382915 (Deciphera Pharmaceuticals, 2023)
